Like-named read-outs stand apart in the source and are kept apart here.
Key:
[1] = Procedure: (§1) In order to assess removal of oxalate from a stock solution by lanthanum carbonate, an oxalate binding assay was developed. […] Further, the buffer conditions were designed to mimic the conditions present in the stomach and in the small intestine. Briefly, 50 mL of a stock sodium oxalate solution containing 8.5 g/L sodium chloride was adjusted to the desired pH using 5N HCl and the Mettler-Toledo DL58 autotitrator. Various combinations of oxalate and lanthanum carbonate concentrations were tested to determine which would maximize oxalate removal. Prior to the addition of the desired amount of lanthanum carbonate, a 2 mL sample was taken to act as a zero time point sample. The volume of buffer was made up to 50 mL again by adding 2 mL of stock oxalate buffer back to the pH adjusted buffer and the lanthanum carbonate was added. […] In addition, samples were assayed at 590 nm in a Falcon 96-well microplate using the Molecular Devices Spectramax 190 plate reader.
In order to maximize the accuracy of the results, the filtered samples were assayed at a 1/20 dilution.
The procedure described above was repeated at various pH's in the range of 3-7.

[2] = 0.1 M compound, 0.01 M oxalate, 0.1 M phosphate (10-fold excess)
Procedure: In addition, samples were assayed at 590 nm in a Falcon 96-well microplate using the Molecular Devices Spectramax 190 plate reader.

[3] = 0.1 M compound; 0.1 M phosphate, 0.01 M oxalate; pH 3 gradually increased to pH 7
Text: In order to simulate the passing of lanthanum oxalate through the digestive system, a final experiment was designed which would study both oxalate and phosphate removal as the pH changed from pH 3 (i.e. stomach pH) to pH 7 (i.e. approximate intestinal pH).
Removal of both oxalate and phosphate were monitored for ten minutes. […] Samples were taken at pH 4, 5, 6, and 7 in order to assess changes in the amount of oxalate and phosphate present in the solution.

[4] = Oxalate binding assay of Example 1 with pH maintained with 1N NaOH (chlorides, acetates); conditions: pH 7, pH maintained with 1N NaOH
Procedure: as §1

[5] = pH 7, 0.1 M compound, 0.01 M sodium oxalate, 8.5 g/L sodium chloride

O.O.O.O.O.O=C([O-])[O-].O=C([O-])[O-].O=C([O-])[O-].[La+3].[La+3] [lanthanum carbonate pentahydrate]
oxalate binding [1, 5]: can effectively bind oxalate | competitive binding of oxalate vs phosphate ([2]; pH 3.0): Preferential binding of phosphate | competitive binding of oxalate vs phosphate ([2]; pH 7.0): preferentially bind oxalate over phosphate

O=C([O-])[O-].O=C([O-])[O-].O=C([O-])[O-].[Ce+3].[Ce+3] [cerium carbonate]
oxalate binding ([1]; pH 3 (compared with pH 7), 0.1 M compound): less effective | oxalate binding compared with 0.1 M lanthanum carbonate ([1]; pH 7, 0.1 M compound): as effective as 0.1 M lanthanum carbonate

O=C([O-])[O-].O=C([O-])[O-].O=C([O-])[O-].[La+3].[La+3] [lanthanum carbonate]
oxalate binding in the presence of excess phosphate during pH transition [3]: can successfully bind oxalate

[Cl][La]([Cl])[Cl] [lanthanum chloride]
oxalate binding [4]: binds oxalate quite rapidly

O.O.O.O.O=C([O-])[O-].O=C([O-])[O-].O=C([O-])[O-].[La+3].[La+3] [lanthanum carbonate tetrahydrate]
oxalate binding [1, 5]: can effectively bind oxalate | oxalate binding at various pH ([1]; pH range 3-7): can bind oxalate in this pH range (3-7) with preferential binding at pH 6-7

Source: US20070116782A1, “USE OF RARE EARTH COMPOUNDS FOR THE PREVENTION OF KIDNEY STONE DISEASE” (SHIRE INT[…] B.V., priority 2001, published 2007)
